The test system of one assay is aldose reductase. The experiment in a line: Lens polyol (dulcitol) accumulation in galactose-fed rats. It counts as in vivo, rat (male albino, Spraque-Dawley). The note with it: for Mean Polyol Accumulation, Micromoles Dulcitol/g of Tissue: rat lens 24 h after third dose. The procedure:
As discussed hereinabove, sugar cataract formation is a frequent complication of the diabetic patient and their occurrence is apparent even in patients where diabetes appears controlled. […] The accumulation of polyols in the lens tissue results in osmotic and histological changes which are characteristic of sugar cataracts. […] Control rats received a 10% galactose solution at a dose level of 10 ml/kg. daily for three days. The total dose was 1 g/kg daily. Six animals per control group were used. Groups receiving galactose plus test drug contained three rats. The routine starting dose of a test drug was 100 mg/kg. orally for three days with galactose given simultaneously. The test drug was administered at a volume of 5 ml/kg. The test drug solution and the galactose solution were administered together. Twenty-four hours after the third dose the lens of the eyeballs were carefully removed from the sacrificed rats and the polyol content of the lens determined according to West and Rapport, Proc. Soc. Exp. Biol. Med. 70, 141-142 (1949).

In assay [1] the target is T1, Aldose reductase isolated from bovine lens (Bos taurus, UniProt P16116).
T1 construct: Aldose reductase was isolated from bovine lens; from tissue; host or cells: bovine lens
The experiment in a line: Inhibition of aldose reductase isolated from bovine lens (Lineweaver-Burk). It counts as biochemical. The note with it: procedure of Lineweaver and Burk, read-out: Amount which inhibits the maximum velocity of the aldose reductase activity by 50% (IC50). The procedure: The ability of 4,5-dihydro-4H-pyrrolo[3,2,1-ij]quinoline-1,2-dione to inhibit aldose reductase activity was determined according to the procedure of Lineweaver, H., and Burk D., The Determination of Enzyme Dissociation Constants, J. Am. Chem. Soc. 658-666 (1934).
Aldose reductase was isolated from bovine lens and the activity of the enzyme determined according to Gabbay, R. H. and Kinoshita, J. H., Methods in Enzymology, Vol. XLI (B) 37:159.

As a reminder, the pIC50 is the negative decadic logarithm of the IC50, by convention in mol/L.

pIC50: −log10 of the molar value.

Take `O=C1C(=O)N2CCCc3cccc1c32` [AHR-5191, 5,6-dihydro-4H-pyrrolo[3,2,1-ij]quinoline-1,2-dione]: in the assay on aldose reductase (Experiment No. 1, 100 mg/kg PO daily for three days with galactose 1 g/kg daily, galactose controls 3.7), the “Mean Polyol Accumulation, Micromoles Dulcitol/g of Tissue” value is listed as 2.1 Micromoles Dulcitol/g of Tissu. Besides, the “Mean Polyol Accumulation, %± Control” value in the assay with aldose reductase (Experiment No. 1, 100 mg/kg PO daily for three days with galactose, rat lens, vs galactose controls) is given as -43.2%; with aldose reductase (po, 100 mg/kg, 72 h), -37.0%. Besides, the negative-log IC50 (pIC50) in assay [1] is 4.10.

As to `O=C(O)CN1C(=O)c2cccc3cccc(c23)C1=O` [Ay-22,284, 1,3-dioxo-1H-benz[de]isoquinoline-2(3H) acetic acid], the “Mean Polyol Accumulation, Micromoles Dulcitol/g of Tissue” value was 2.7 Micromoles Dulcitol/g of Tissu in the assay on aldose reductase (Experiment No. 1, 200 mg/kg PO daily for three days with galactose 1 g/kg daily, galactose controls 3.7) and 5.9 Micromoles Dulcitol/g of Tissu in the assay on aldose reductase (Experiment No. 2, 100 mg/kg PO daily for three days with galactose 1 g/kg daily, galactose controls 4.3). Besides, the “Mean Polyol Accumulation, %± Control” value in the assay with aldose reductase (Experiment No. 1, 200 mg/kg PO daily for three days with galactose, rat lens, vs galactose controls) is reported as -27%; in the assay on aldose reductase (Experiment No. 2, 100 mg/kg PO daily for three days with galactose, rat lens, vs galactose controls), “+37.2%”. Further, in assay [1], the pIC50 is 4.05.

For the origin of these results see patent US4151282A, “Compositions and methods for treating diabetic complications” (A. H. Robins Company, Inc., priority 1977, dated 1979).
